Drawing on PubChem BioAssay AID179 (DTP/NCI, 2004), this text covers EC50, IC50 and outcome for 71 compounds.

Structures are written as SMILES. Where “and” joins values, the source holds several entries; their conditions need not be identical. Identical values can stand only once. Calls of active or inactive are those of the source.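 The calls were made as follows: active = compounds giving half or more protection of infected cells from virus-caused growth loss, again on retest; inactive = the rest.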

The assay has as its system CEM cells HIV-1 protection, formazan growth assay. The assay is described as follows: NCI AIDS Antiviral Assay. Particulars: for IC50: measured here: growth of uninfected CEM cells. The method, boiled down:
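Protection of CEM cells against HIV-1 measured as cell growth via soluble formazan read-out, with five concentrations tested on both infected and uninfected cells; failure to protect may reflect toxicity.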

Turning to `CNc1ccc(/C=C2\C=Cc3ccccc32)cc1`, the EC50 is above 200 µM and the IC50 was above 200 µM.

Turning to `O=C1c2ccccc2C(=O)c2c1ccc1c2N=C(c2ccc(Br)cc2)CC(c2cccc3ccccc23)N1` (stereo unspecified), the EC50 is above 64.6 µM and the IC50 was above 64.6 µM.

For `COC(=O)c1cn2ccc3ccccc3c2c1C(=O)OC`, the EC50 is above 200 µM and the IC50 was above 100 µM.

On to `O=C1Nc2ccccc2/C1=N/N1CCCCCC1`, for which the EC50 was above 200 µM and the IC50 was 97.7 µM.

On to `CCOC(=O)/C(=C/c1cccc2ccccc12)P(=O)(OCC)OCC`, for which the EC50 was above 257 µM and the IC50 stood at 17 µM.

Turning to `CCN1C(=O)C(C)C=C(C)C=C1C` (stereo unspecified), the EC50 was above 724 µM and the IC50 is above 724 µM.

Take `CC(C)OP(=O)(OC(C)C)C(C(C)C)N(C)C(N)=NC#N` (stereo unspecified): the EC50 was above 200 µM and the IC50 is above 200 µM.

Take `CN(C(=O)c1ccccc1)c1ccc2c(c1)C(=O)c1ccccc1C2=O`: the EC50 is above 15.1 µM and the IC50 was above 15.1 µM.

For the compound `NS(=O)(=O)c1ccccc1[N+](=O)[O-]`, the result was inactive.

In the case of `CCOP(=O)(OCC)C(NC(=O)C(C(F)(F)F)C(F)(F)F)c1ccccc1` (stereo unspecified), the EC50 is above 200 µM and the IC50 worked out at 24.5 µM.

`COC(=O)N/N=C(\C)C(CN1CCOCC1)C(c1ccccc1)c1cc2ccccc2oc1=O` (stereo unspecified): the EC50 was above 83.2 µM and the 50% inhibitory concentration (IC50) was determined as 61.7 µM.

Turning to `CNC(=O)OC(COC)CN1CCN(c2ccccc2C)CC1` (stereo unspecified), the EC50 was above 200 µM and the 50% inhibitory concentration (IC50) is above 200 µM.

On to `CC(=O)[O-].CC(=O)[O-].O=C(N/N=C/c1cc(Cl)cc(Cl)c1[OH2+])c1ccncc1.[Mn+2]`, for which the result was inactive.

On to `N#CC(C#N)=C1CCC2C(=C(C#N)C#N)CCC12` (stereo unspecified), for which the outcome was inactive.

On to `O=C(Nc1ccc(-c2cccs2)oc1=O)c1ccccc1`, for which the EC50 was above 200 µM and the IC50 is above 200 µM.

As to `O=[N+]([O-])c1cccc2nc3ccccc3c(NCCc3cccc[n+]3[O-])c12`, the EC50 was above 200 µM and the IC50 was determined as 0.0631 µM.

As for `Cc1cccc(/C=N/NC(=S)NCCc2ccccn2)n1`, the EC50 is above 200 µM and the IC50 was 20.4 µM.

On to `CC12CCC([C@H](Nc3cc(C(F)(F)F)cc(C(F)(F)F)c3)C1=O)C2(C)C` (stereo partly specified), for which the EC50 is above 20 µM and the IC50 is above 20 µM.

For `O=[n+]1cnn([O-])c2ccccc21`, the EC50 was above 200 µM and the IC50 came out at 3.63 µM.

Regarding `COC(=O)C1(C(=O)OC)C/C(C)=C(/C)SCCCS1`, the EC50 is above 200 µM and the IC50 is above 200 µM.

For `Cc1csc2c(=O)n(C3OC(CO)C(O)C3O)c(=O)[nH]c12` (stereo unspecified), the EC50 is above 200 µM and the half-inhibitory concentration (IC50) is above 200 µM.

Turning to `Nn1nnc2ccccc21`, the EC50 was above 200 µM and the IC50 is above 200 µM.

Consider `O=C1OC(CN2CCOCC2)CN1/N=C/c1ccc([N+](=O)[O-])o1` (stereo unspecified), for which the EC50 is above 200 µM and the IC50 worked out at 41.7 µM.

Take `O=C(c1ccccc1)C(SSC(C(=O)c1ccccc1)C(=O)c1ccccc1)C(=O)c1ccccc1`: the EC50 was above 200 µM and the IC50 stood at 17.4 µM.

Consider `Cc1ccc(NC(=O)CCC(CC(=O)C(C)(C)C)=NNC(=O)C(=O)NN)cc1C`, for which the EC50 is above 3.63 µM and the IC50 came out at 2.57 µM.

For `COc1cc(/C=C2/CCCc3ccccc3C2=O)cc(OC)c1OC`, the EC50 was above 200 µM and the IC50 stood at 11.7 µM.

Regarding `S=c1[nH]c2ccccc2s1.[Zn+2]`, the EC50 was above 26.3 µM and the IC50 was above 26.3 µM.

Take `NCCCNC(=O)c1csc(NC(=O)c2csc(NC(=O)CCCN)n2)n1`: the EC50 was above 437 µM and the IC50 turned out to be 174 µM.

`CCCCCNC(=O)CCCCCCCCCCCNC(=O)CCCCCCCCCCN1C=CC(=CC=C2C=CC(=O)C=C2)C=C1`: the result was inactive.

In the case of `CC(=O)NS(=O)(=O)c1ccc(NC(=O)c2ccccc2SC(=O)CCCC[n+]2ccccc2)cc1`, the EC50 was 1.78 µM and the IC50 was above 200 µM.

As to `O=C(NCCCNC(=O)c1ccc2c(O)c(O)ccc2c1)c1ccc2c(O)c(O)ccc2c1`, the EC50 is above 151 µM and the half-maximal inhibitory concentration (IC50) is 15.5 µM.

For the compound `Cc1ccc(N2C=Nn3c(nc4sc5c(c4c3=O)CCCC5)C2)cc1`, the EC50 is 25.1 µM and the IC50 amounted to 42.7 µM.

`CC(C)C1COC(c2cccc(C3=N[C@@H](C(C)C)CO3)n2)=N1` (stereo partly specified): the EC50 is above 24 µM and the IC50 is above 24 µM.

Take `c1ccc2c(c1)CCc1[nH]c3c(c1-2)-c1ccccc1CC3`: the EC50 was above 200 µM and the IC50 is 30.9 µM.

As for `CC(C)(C)NC1C2CCC(C)(C1O)C2(C)C` (stereo unspecified), the EC50 was above 200 µM and the IC50 is above 200 µM.

Turning to `COC(=O)C1=C(C(=O)OC)C2(OC(C)=O)c3ccccc3-c3ccccc3C12` (stereo unspecified), the EC50 is above 2.51 µM and the IC50 stood at 1.35 µM.

As to `N#Cc1c(-c2ccccc2)c(C#N)c(=O)n(C2OC(CO)C(O)C(O)C2O)c1S` (stereo unspecified), the EC50 is above 200 µM; the concentration for half-maximal inhibition (IC50) was > 200 µM and 141 µM.

On to `C=C(C)C1Cc2c(cc(OC)c3c(=O)c4ccccc4n(C)c23)O1` (stereo unspecified), for which the EC50 is above 22.4 µM and the 50% inhibitory concentration (IC50) is above 22.4 µM.

With `COc1cccc2c1C(=O)c1c(O)c3c(c(O)c1C2=O)C[C@@](O)(C(=O)CO)C[C@@H]3OC1CC(N2CCOCC2)C(O)C(C)O1` (stereo partly specified), the outcome was inactive.

Regarding `COCCOCOC(CCCCO)c1cc(C)c(O[Si](C)(C)C(C)(C)C)c(C)c1` (stereo unspecified), the EC50 is above 50.1 µM and the IC50 was 4.9 µM.

With `c1csc(-c2nnc(C34CC5CC(CC(C5)C3)C4)o2)c1`, the EC50 is above 200 µM and the IC50 was determined as 50.1 µM.

Take `N=S(c1ccccc1[N+](=O)[O-])c1ccccc1[N+](=O)[O-]`: the EC50 is above 200 µM; the IC50 was 0.631 µM and 0.589 µM.

With `O=C(Nc1cc2c(=O)[nH]c3ccccc3c2oc1=O)c1cnccn1`, the EC50 is above 100 µM and the IC50 is above 100 µM.

On to `O=[N+]([O-])C(=C(Cl)Cl)/C(Cl)=C(\Cl)Br`, for which the result was inactive.

As for `C=CCc1cc(OC)c2c(c1)C(OC(C)=O)CC(c1ccc(OC)c(OC)c1)O2` (stereo unspecified), the EC50 is above 46.8 µM and the IC50 was above 46.8 µM.

Take `c1cc2c(cc1NC1=NCCO1)OCO2`: the EC50 was above 200 µM and the IC50 was found to be 58.9 µM.

For the compound `C[C@]12CC[C@H](OC(=O)/C=C\c3ccccc3N(CCCl)CCCl)CC1CC[C@@H]1C2CC[C@]2(C)NC(=O)CCC12` (stereo partly specified), the result was inactive.

In the case of `Cc1cc2c(c(C(C)(C)C)c1)O[P+](=O)Oc1c(cc(C)cc1C(C)(C)C)C2`, the EC50 is above 18.6 µM and the half-maximal inhibitory concentration (IC50) is above 18.6 µM.

Turning to `CCOC(=O)Cc1nc(Nc2ccc(F)c(Cl)c2)c2c3c(sc2n1)CCCC3`, the EC50 was above 12.3 µM and the IC50 is above 12.3 µM.

Regarding `N#Cc1c2nc3ccccc3nc2n2ccccc12`, the EC50 was above 40.7 µM and the IC50 is above 40.7 µM.

On to `COc1cccc(C2=CCCCCC2)c1OC`, for which the EC50 is above 200 µM and the IC50 was determined as 79.4 µM.

Turning to `CO/C=N/c1cn2c(n1)CN=C2`, the EC50 is above 200 µM and the IC50 was above 200 µM.

Regarding `COc1ccc(N2C(=O)C3c4[nH]c5ccc(C)cc5c4C4CCC(C)CC4C3C2=O)cc1` (stereo unspecified), the EC50 was above 100 µM and the IC50 was above 100 µM.

With `CCCC1C(=O)Nc2cccc3ncn(c23)C1=O` (stereo unspecified), the EC50 was above 200 µM and the IC50 came out at 186 µM.

Consider `CO[C@H]1/C=C/O[C@@]2(C)Oc3c(C)c(O)c4c(O)c(c(/C=N/N5C(C)CN(Cc6ccccc6)CC5C)c(O)c4c3C2=O)NC(=O)/C(C)=C\C=C\[C@H](C)[C@H](O)[C@@H](C)[C@@H](O)[C@@H](C)[C@H](OC(C)=O)[C@@H]1C` (stereo partly specified), for which the EC50 was above 200 µM and the IC50 came out at 9.77 µM.

Regarding `CCN=C(NC(=O)c1ccc(F)cc1)SCSC(=NCC)NC(=O)c1ccc(F)cc1`, the EC50 was above 200 µM and the IC50 was above 200 µM.

In the case of `COc1ccc2c(c1)C/C(=C\c1ccc(O)c(OC)c1)C2=O`, the EC50 is above 200 µM and the IC50 was above 200 µM.

Regarding `O=C(O)c1c[nH]cc1C(=O)O`, the result was inactive.

Turning to `CCN1CCC2(CC1)OC(c1ccccc1)C(c1ccccc1)O2` (stereo unspecified), the EC50 is above 200 µM and the IC50 was 112 µM.

Regarding `COC(=S)SSC(=S)NCCN(CCNC(=S)SSC(=S)OC)C(=S)SSC(=S)OC`, the half-maximal effective concentration (EC50) is above 257 µM and the IC50 is 209 µM.

Consider `CC(=O)N(C)OC(=O)CC(=O)c1ccccc1`, for which the EC50 was above 776 µM and the half-maximal inhibitory concentration (IC50) was found to be 661 µM.

`C1CCOC2(CCC3(CC2)OCCCCO3)OC1`: the result was inactive.

As to `C[Si](C)(C)c1ccc(CC2(Cc3ccc([Si](C)(C)C)cc3)CCNC2)cc1`, the EC50 is above 5.01 µM and the IC50 is above 5.01 µM.

With `Oc1c(CN2CCOCC2)ccc2cccnc12`, the EC50 is above 200 µM and the IC50 stood at 3.72 µM.

Consider `NC(=O)NNC/C(Cl)=C(\Cl)C(=O)O`, for which the EC50 was above 1100 µM and the IC50 stood at 191 µM.

In the case of `C=C1[C@H](OC(=O)C(C)C)[C@]23CC4(O)[C@@H]5[C@@]6(C)CCC[C@]57C([C@@H]2C[C@@]1(O)[C@H](O)[C@@H]73)N4C6`, the EC50 is 61.7 µM and the IC50 is above 200 µM.

Regarding `Oc1ccc2c(c1)-c1c(c3cc(O)ccc3n1CCN1CCOCC1)CC2`, the outcome was inactive.

On to `CC1(C)OC[C@@H](O)[C@H](C#N)CO1`, for which the EC50 is above 200 µM and the IC50 is above 200 µM.

As to `FC(F)(F)c1nc2ccc(SSc3ccc4nc(C(F)(F)F)[nH]c4c3)cc2[nH]1`, the EC50 was above 100 µM and the IC50 is 91.2 µM.

With `Cn1c2c(c3ccccc31)CC(=O)N1CCCCC1C21OCCO1` (stereo unspecified), the EC50 is above 100 µM and the IC50 was above 100 µM.

In the case of `CC1OC(OC2C(CO)OC(O[C@H]3CC[C@@]4(C)C(=CC[C@H]5[C@@H]6C[C@@H]7O[C@@]8(CC[C@H](C)CN8)[C@@H](C)[C@@H]7[C@@]6(C)CC[C@@H]54)C3)C(OC3OC(C)C(O)C(O)C3O)C2O)C(O)C(O)C1O` (stereo partly specified), the outcome was inactive.
